Data taken from patent US12339285B2, “Method for estimating therapeutic efficacy” (Konica Minolta, Inc., priority 2017, dated 2025).
Like-named read-outs stand apart in the source and are kept apart here.

Test system: tumor tissue of lung cancer patients transplanted in SCID mice
Method: Further, tumor tissue was collected from each of the patients at the same time when drug administration was started, and a 2 mm-square piece of the tumor tissue was transplanted under the skin of SCID (Severe Combined ImminoDeficiency) mice (5 mice transplanted with tumor tissue derived from each patient were produced, and a total of 20 mice were produced). […] After 1 day and 100 days from the administration, tumor tissue was collected from the mice, and sample slides were prepared in the same manner as in Preparation for evaluation-1.

COc1cc2ncnc(Nc3ccc(F)c(Cl)c3)c2cc1OCCCN1CCOCC1 [Gefitinib]
resistance in PDX mice (PDX mice of the patient B or D (so in the source), judged from tumor volume): resistance was not developed
volume of tumor (PDX mice transplanted with tumor tissue of patient F or H (drug resistant on day 100)): once reduced on day 100 after drug administration, but was increased thereafter
resistance to Gefitinib in PDX mice (PDX mice transplanted with tumor tissue of patient F or H, judged from tumor volume): resistance to Gefitinib was developed
volume of tumor (PDX mice transplanted with tumor tissue of the patient B or D (so in the source) with no drug resistance on day 100): gradually reduced
